Reference: ChEMBL document CHEMBL3826966, “A chromatography-free isolation of rohitukine from leaves of Dysoxylum binectariferum: Evaluation for in vitro cytotoxicity, Cdk inhibition and physicochemical properties” (Bioorg Med Chem Lett, 2016)
In brackets after ≈: the same amount, converted by molar mass.

Legend:
[1] = biological target: Serine/threonine-protein kinase 33 (Homo sapiens) (UniProt Q9BYT3); experiment: Inhibition of human STK33 (1 to 514 residues) assessed as remaining enzyme activity at 50 uM after 30 mins by 33P-ATP filter-binding assay
[2] = biological target: MAP kinase-interacting serine/threonine-protein kinase 2 (Homo sapiens) (UniProt Q9HBH9); experiment: Inhibition of human MNK2 assessed as remaining enzyme activity at 50 uM after 30 mins by 33P-ATP filter-binding assay
[3] = biological target: MAP kinase-activated protein kinase 5 (Homo sapiens) (UniProt Q8IW41); experiment: Inhibition of human PRAK (1 to 471 residues) assessed as remaining enzyme activity at 50 uM after 30 mins by 33P-ATP filter-binding assay
[4] = biological target: Glycogen synthase kinase-3 beta (Homo sapiens) (UniProt P49841); experiment: Inhibition of human GSK3beta (2 to 420 residues) assessed as remaining enzyme activity at 50 uM after 30 mins by 33P-ATP filter-binding assay
[5] = biological target: Serine/threonine-protein kinase tousled-like 1 (Homo sapiens) (UniProt Q9UKI8); experiment: Inhibition of human TLK1 (1 to 766 residues) assessed as remaining enzyme activity at 50 uM after 30 mins by 33P-ATP filter-binding assay
[6] = biological target: AMP-activated protein kinase, AMPK (Homo sapiens) (UniProt P54646+O43741+P54619+Q9UGJ0+Q9Y478+Q13131+Q9UGI9); experiment: Inhibition of human AMPK assessed as remaining enzyme activity at 50 uM after 30 mins by 33P-ATP filter-binding assay; type: protein-complex assay
[7] = biological target: Dual specificity tyrosine-phosphorylation-regulated kinase 2 (Homo sapiens) (UniProt Q92630); experiment: Inhibition of human DYRK2 (3 to 528 residues) assessed as remaining enzyme activity at 50 uM after 30 mins by 33P-ATP filter-binding assay
[8] = biological target: Inhibitor of nuclear factor kappa-B kinase subunit beta (Homo sapiens) (UniProt O14920); experiment: Inhibition of human IKKb (1 to 736 residues) assessed as remaining enzyme activity at 50 uM after 30 mins by 33P-ATP filter-binding assay
[9] = biological target: Serine/threonine-protein kinase TBK1 (Homo sapiens) (UniProt Q9UHD2); experiment: Inhibition of human TBK1 (1 to 729 residues) assessed as remaining enzyme activity at 50 uM after 30 mins by 33P-ATP filter-binding assay
[10] = biological target: Serine/threonine-protein kinase pim-1 (Homo sapiens) (UniProt P11309); experiment: Inhibition of human PIM1 (2 to 313 residues) assessed as remaining enzyme activity at 50 uM after 30 mins by 33P-ATP filter-binding assay
[11] = biological target: Serine/threonine-protein kinase pim-3 (Homo sapiens) (UniProt Q86V86); experiment: Inhibition of human PIM3 (2 to 326 residues) assessed as remaining enzyme activity at 50 uM after 30 mins by 33P-ATP filter-binding assay
[12] = biological target: Homeodomain-interacting protein kinase 3 (Homo sapiens) (UniProt Q9H422); experiment: Inhibition of human HIPK3 (161 to 562 residues) assessed as remaining enzyme activity at 50 uM after 30 mins by 33P-ATP filter-binding assay
[13] = biological target: Serine/threonine-protein kinase 24 (Homo sapiens) (UniProt Q9Y6E0); experiment: Inhibition of human MST3 (2 to 431 residues) assessed as remaining enzyme activity at 50 uM after 30 mins by 33P-ATP filter-binding assay
[14] = biological target: Proto-oncogene tyrosine-protein kinase Src (Homo sapiens) (UniProt P12931); experiment: Inhibition of human Src (1 to 536 residues) assessed as remaining enzyme activity at 50 uM after 30 mins by 33P-ATP filter-binding assay
[15] = biological target: Tyrosine-protein kinase SYK (Homo sapiens) (UniProt P43405); experiment: Inhibition of human SYK (1 to 635 residues) assessed as remaining enzyme activity at 50 uM after 30 mins by 33P-ATP filter-binding assay
[16] = biological target: Tyrosine-protein kinase ZAP-70 (Homo sapiens) (UniProt P43403); experiment: Inhibition of human ZAP70 (1 to 619 residues) assessed as remaining enzyme activity at 50 uM after 30 mins by 33P-ATP filter-binding assay
[17] = biological target: Ephrin type-B receptor 2 (Homo sapiens) (UniProt P29323); experiment: Inhibition of human EPHB2 (560 to 987 residues) assessed as remaining enzyme activity at 50 uM after 30 mins by 33P-ATP filter-binding assay
[18] = biological target: Fibroblast growth factor receptor 1 (Homo sapiens) (UniProt P11362); experiment: Inhibition of human FGFR1 (400 to 820 residues) assessed as remaining enzyme activity at 50 uM after 30 mins by 33P-ATP filter-binding assay
[19] = biological target: Insulin receptor (Homo sapiens) (UniProt P06213); experiment: Inhibition of human IR (1001 to 1382 residues) assessed as remaining enzyme activity at 50 uM after 30 mins by 33P-ATP filter-binding assay
[20] = Thermodynamic equilibrium solubility in stimulated intestinal fluid at 120 ug/ml at pH 6.8 by HPLC analysis; type: ADME; details: simulated intestinal fluid, read-out: Therm_solubility
[21] = Partition coefficient, logP of the compound in water/PBS buffer at 25 degC by retention time method; type: physicochemical
[22] = Ionization constant, pKa of the compound in buffer at pH 1 to 13 by uV spectrophotometry; type: physicochemical
CDK9/cyclin T1 = CDK9/cyclin T1 (Homo sapiens, UniProt P50750); experiment: Inhibition of human Cdk9/T1 using YSPTSPSYSPTSPSYSPTSPKKK peptide as substrate after 30 mins by 33P-ATP filter-binding assay; type: protein-complex assay
[23] = Stability in pH 4 buffer at 120 ug/ml after 8 hrs by RP-HPLC analysis; type: physicochemical; details: pH 4, 8 h
[24] = Cytotoxicity against human MOLT4 cells assessed as cell growth inhibition after 48 hrs by MTT assay; type: functional; details: MOLT-4, 48 h
[25] = Cytotoxicity against human THP1 cells assessed as cell growth inhibition after 48 hrs by MTT assay; type: functional; details: THP-1, 48 h
[26] = Cytotoxicity against human SNB75 cells assessed as cell growth inhibition after 48 hrs by MTT assay; type: functional; details: SNB-75, 48 h
[27] = biological target: Mitogen-activated protein kinase 9 (Homo sapiens) (UniProt P45984); experiment: Inhibition of human JNK2 (1 to 424 residues) assessed as remaining enzyme activity at 50 uM after 30 mins by 33P-ATP filter-binding assay
[28] = biological target: Mitogen-activated protein kinase 11 (Homo sapiens) (UniProt Q15759); experiment: Inhibition of human p38beta MAPK (1 to 364 residues) assessed as remaining enzyme activity at 50 uM after 30 mins by 33P-ATP filter-binding assay
[29] = biological target: RAC-alpha serine/threonine-protein kinase (Homo sapiens) (UniProt P31749); experiment: Inhibition of human PKBalpha assessed as remaining enzyme activity at 50 uM after 30 mins by 33P-ATP filter-binding assay
[30] = biological target: Ribosomal protein S6 kinase beta-1 (Homo sapiens) (UniProt P23443); experiment: Inhibition of human S6K1 assessed as remaining enzyme activity at 50 uM after 30 mins by 33P-ATP filter-binding assay

With `Cc1cc(=O)c2c(O)cc(O)c([C@H]3CCN(C)C[C@H]3O)c2o1` [ROHITUKINE] the Activity [1] was 54%, the Activity [2] was 49% and the Activity [3] was 72%. The Activity [4] was 66%, the Activity [5] was 109% and the Activity [6] was 16%. For the same compound, the Activity [7] was 84%, the Activity [8] was 83% and the Activity [9] was 55%. For the same compound, the Activity [10] was 27%, the Activity [11] was 12% and the Activity [12] was 100%. It also gave an Activity [13] of 85%, an Activity [14] of 61% and an Activity [15] of 109%. For the same compound, the Activity [16] was 103%, the Activity [17] was 81% and the Activity [18] was 66%. For the same compound, the Activity [19] was 91%, the solubility thermodynamic [20] was 18.9 mg/mL (≈ 61.9 mM) and the logP [21] was 1.01. For the same compound, the pKa [22] was 5.83, the IC50 (CDK9/cyclin T1) was 0.3 µM and the Stability [23] was “Stable”. For the same compound, the GI50 [24] was 12 µM, the GI50 [25] was 28 µM and the GI50 [26] was 22 µM. For the same compound, the Activity [27] was 107%, the Activity [28] was 76% and the Activity [29] was 76%. The Activity [30] was 79%.
